Data taken from patent US11180504B2 (ORCHID PHARMA LTD., priority 2016, dated 2021).
In brackets after ≈: the same amount, converted by molar mass. Where two headings read alike, the source gives them in different places.

Key:
[1] = tested on: carbapenemase producing K. pneumoniae; assay: MIC by broth micro-dilution (CLSI), carbapenemase producing K. pneumoniae; assay type: cell-based, Klebsiella pneumoniae
[2] = tested on: carbapenem sensitive Pseudomonas aeruginosa; assay: MIC by broth micro-dilution (CLSI), carbapenem sensitive P. aeruginosa; assay type: cell-based
[3] = tested on: carbapenem sensitive Escherichia coli; assay: MIC by broth micro-dilution (CLSI), carbapenem sensitive E. coli; assay type: cell-based
[4] = tested on: methicillin-sensitive Staphylococcus aureus; assay: MIC by broth micro-dilution (CLSI), methicillin-sensitive S. aureus; assay type: cell-based; details: MSSA S. aureus ATCC29213
[5] = Klebsiella pneumoniae, ATCCBAA1705, KPC-2 K. pneumoniae ATCC BAA-1705, read-out: MIC
[6] = Pseudomonas aeruginosa, ATCC27853, Meropenem susceptible P. aeruginosa ATCC27853, read-out: MIC
[7] = Escherichia coli, ATCC25922, ESBL −ve E. coli ATCC25922, read-out: MIC
[8] = Staphylococcus aureus, ATCC 29213 / MSSA, read-out: MIC

MIC [1, 5] [µg/mL] | MIC [2, 6] [µg/mL] | MIC [3, 7] [µg/mL] | MIC [4, 8] [µg/mL] | MIC ([1]; KPC-2 K. pneumoniae ATCC BAA-1705) [µg/mL] | MIC ([2]; Meropenem susceptible P. aeruginosa ATCC27853) [µg/mL] | MIC ([3]; ESBL −ve E. coli ATCC25922) [µg/mL] | MIC [4] [µg/mL] | Structure (SMILES)
2 (≈ 3.55 µM) | 4 (≈ 7.1 µM) | 0.5 (≈ 0.887 µM) | 4 (≈ 7.1 µM) |  |  |  |  | C[C@@H](NC(=O)Cn1cnnn1)[C@H]1C(=O)N2C(C(=O)O)=C(S[C@@H]3CN[C@H](C(=O)N4C[C@@H](O)C[C@H]4CN)C3)[C@H](C)[C@H]12 [Example 470, (4R,5S,6R)-6-((R)-1-(2-(1H-tetrazol-1-yl)acetamido)ethyl)-3-((3S,5S)-5-((2S,4S)-2-(aminomethyl)-4-hydroxypyrrolidine-1-carbonyl)pyrrolidin-3-ylthio)-4-methyl-7-oxo-1-azabicyclo[3.2.0]hept-2-ene-2-carboxylic acid]
2 (≈ 3.47 µM) | 4 (≈ 6.95 µM) | 0.5 (≈ 0.869 µM) | 2 (≈ 3.47 µM) |  |  |  |  | C[C@@H](NC(=O)Cn1cnnn1)[C@H]1C(=O)N2C(C(=O)O)=C(S[C@@H]3CN[C@H](C(=O)N4CCO[C@H]5CNC[C@H]54)C3)[C@H](C)[C@H]12 [Example 471, (4R,5S,6R)-6-((R)-1-(2-(1H-tetrazol-1-yl)acetamido)ethyl)-4-methyl-3-((3S,5S)-5-((4aR,7aS)-octahydropyrrolo[3,4-b][1,4]oxazine-4-carbonyl)pyrrolidin-3-ylthio)-7-oxo-1-azabicyclo[3.2.0]hept-2-ene-2-carboxylic acid]
2 (≈ 3.65 µM) | 2 (≈ 3.65 µM) | 0.5 (≈ 0.913 µM) | 4 (≈ 7.3 µM) |  |  |  |  | C[C@@H](NC(=O)Cn1cnnn1)[C@H]1C(=O)N2C(C(=O)O)=C(S[C@@H]3CN[C@H](C(=O)N4CC[C@@H](CN)C4)C3)[C@H](C)[C@H]12 [Example 472, (4R,5S,6R)-6-((R)-1-(2-(1H-tetrazol-1-yl)acetamido)ethyl)-3-((3S,5S)-5-((S)-3-(aminomethyl)pyrrolidine-1-carbonyl)pyrrolidin-3-ylthio)-4-methyl-7-oxo-1-azabicyclo[3.2.0]hept-2-ene-2-carboxylic acid]
2 (≈ 3.55 µM) | 4 (≈ 7.11 µM) | 0.5 (≈ 0.889 µM) | 4 (≈ 7.11 µM) |  |  |  |  | C[C@@H](NC(=O)Cn1cnnn1)[C@H]1C(=O)N2C(C(=O)O)=C(S[C@@H]3CN[C@H](C(=O)N4C[C@H](N)C[C@@H]4CN)C3)[C@H](C)[C@H]12 [Example 473, (4R,5S,6R)-6-((R)-1-(2-(1H-tetrazol-1-yl)acetamido)ethyl)-3-((3S,5S)-5-((2R,4R)-4-amino-2-(aminomethyl)pyrrolidine-1-carbonyl)pyrrolidin-3-ylthio)-4-methyl-7-oxo-1-azabicyclo[3.2.0]hept-2-ene-2-carboxylic acid]
2 (≈ 3.55 µM) | 2 (≈ 3.55 µM) | 0.25 (≈ 0.444 µM) | 4 (≈ 7.1 µM) |  |  |  |  | C[C@@H](NC(=O)Cn1cnnn1)[C@H]1C(=O)N2C(C(=O)O)=C(S[C@@H]3CN[C@H](C(=O)N4C[C@H](N)C[C@@H]4CO)C3)[C@H](C)[C@H]12 [Example 474, (4R,5S,6R)-6-((R)-1-(2-(1H-tetrazol-1-yl)acetamido)ethyl)-3-((3S,5S)-5-((2R,4R)-4-amino-2-(hydroxymethyl)pyrrolidine-1-carbonyl)pyrrolidin-3-ylthio)-4-methyl-7-oxo-1-azabicyclo[3.2.0]hept-2-ene-2-carboxylic acid]
1 (≈ 1.74 µM) | 2 (≈ 3.47 µM) | 0.25 (≈ 0.434 µM) | 2 (≈ 3.47 µM) |  |  |  |  | C[C@@H](NC(=O)Cn1cnnn1)[C@H]1C(=O)N2C(C(=O)O)=C(S[C@@H]3CN[C@H](C(=O)N4CCC(CCN)CC4)C3)[C@H](C)[C@H]12 [Example 480]
 |  |  |  | 1 (≈ 1.7 µM) | 8 (≈ 13.6 µM) | 0.25 (≈ 0.425 µM) | 2 (≈ 3.4 µM) | C[C@@H](NC(=O)Cn1cnnn1)[C@H]1C(=O)N2C(C(=O)O)=C(S[C@@H]3CN[C@H](C(=O)N4CCC5NCCCC5C4)C3)[C@H](C)[C@H]12 (stereo partly drawn) [Example 487, (4R,5S,6R)-6-((R)-1-(2-(1H-tetrazol-1-yl)acetamidin)ethyl)-3-((3S,5S)-5-(decahydro-1,6-naphthyridine-6-carbonyl)pyrrolidin-3-ylthio)-4-methyl-7-oxo-1-azabicyclo[3.2.0]hept-2-ene-2-carboxylic acid]
1 (≈ 1.62 µM) | 16 (≈ 25.9 µM) | 0.5 (≈ 0.811 µM) | 4 (≈ 6.49 µM) |  |  |  |  | C[C@@H](NC(=O)Cn1cnnn1)[C@H]1C(=O)N2C(C(=O)O)=C(S[C@@H]3CN[C@H](C(=O)N4CCC5CN(CCN)CCC54)C3)[C@H](C)[C@H]12 (stereo partly drawn) [Example 489, (4R,5S,6R)-6-((R)-1-(2-(1H-tetrazol-1-yl)acetamido)ethyl)-3-((3S,5S)-5-(5-(2-aminoethyl)octahydro-1H-pyrrolo[3,2-c]pyridine-1-carbonyl)pyrrolidin-3-ylthio)-4-methyl-7-oxo-1-azabicyclo[3.2.0]hept-2-ene-2-carboxylic acid]

Continued, compound first:

Structure (SMILES) | MIC [1, 5] [µg/mL] | MIC [2, 6] [µg/mL] | MIC [3, 7] [µg/mL] | MIC [4, 8] [µg/mL] | MIC ([1]; KPC-2 K. pneumoniae ATCC BAA-1705) [µg/mL] | MIC ([2]; Meropenem susceptible P. aeruginosa ATCC27853) [µg/mL] | MIC ([3]; ESBL −ve E. coli ATCC25922) [µg/mL] | MIC [4] [µg/mL]
C[C@@H](NC(=O)Cn1cnnn1)[C@H]1C(=O)N2C(C(=O)O)=C(S[C@@H]3CN[C@H](C(=O)N4CCC(N)(CO)CC4)C3)[C@H](C)[C@H]12 [Example 475, (4R,5S,6R)-6-((R)-1-(2-(1H-tetrazol-1-yl)acetamido)ethyl)-3-((3S,5S)-5-(4-amino-4-(hydroxymethyl)piperidine-1-carbonyl)pyrrolidin-3-ylthio)-4-methyl-7-oxo-1-azabicyclo[3.2.0]hept-2-ene-2-carboxylic acid] | 2 (≈ 3.46 µM) | 2 (≈ 3.46 µM) | 0.5 (≈ 0.866 µM) | 4 (≈ 6.92 µM) |  |  |  | 
C[C@@H](NC(=O)Cn1cnnn1)[C@H]1C(=O)N2C(C(=O)O)=C(S[C@@H]3CN[C@H](C(=O)N4CCCCC45CCNCC5)C3)[C@H](C)[C@H]12 [Example 476, (4R,5S,6R)-3-((3S,5S)-5-(1,9-diazaspiro[5.5]undecane1-carbonyl)pyrrolidin-3-ylthio)-6-((R)-1-(2-(1H-tetrazol-1-yl)acetamido)ethyl)-4-methyl-7-oxo-1-azabicyclo[3.2.0]hept-2-ene-2-carboxylic acid] | 2 (≈ 3.32 µM) | 32 (≈ 53.2 µM) | 1 (≈ 1.66 µM) | 2 (≈ 3.32 µM) |  |  |  | 
C[C@@H](NC(=O)Cn1cnnn1)[C@H]1C(=O)N2C(C(=O)O)=C(S[C@@H]3CN[C@H](C(=O)N4CCCC45CCNCC5)C3)[C@H](C)[C@H]12 [Example 477, (4R,5S,6R)-3-((3S,5S)-5-(1,8-diazaspiro[4.5]decane-1-carbonyl)pyrrolidin-3-ylthio)-6-((R)-1-(2-(1H-tetrazol-1-yl)acetamido)ethyl)-4-methyl-7-oxo-1-azabicyclo[3.2.0]hept-2-ene-2-carboxylic acid] | 2 (≈ 3.4 µM) | 64 (≈ 109 µM) | 0.5 (≈ 0.851 µM) | 2 (≈ 3.4 µM) |  |  |  | 
C[C@@H](NC(=O)Cn1cnnn1)[C@H]1C(=O)N2C(C(=O)O)=C(S[C@@H]3CN[C@H](C(=O)N4CCn5c(cnc5N)C4)C3)[C@H](C)[C@H]12 [Example 481, (4R,5S,6R)-6-((R)-1-(2-(1H-tetrazol-1-yl)acetamido)ethyl)-3-((3S,5S)-5-(3-amino-5,6,7,8-tetrahydroimidazo[1,5-a]pyrazine-7-carbonyl)pyrrolidin-3-ylthio)-4-methyl-7-oxo-1-azabicyclo[3.2.0]hept-2-ene-2-carboxylic acid] | 2 (≈ 3.42 µM) | 2 (≈ 3.42 µM) | 0.125 (≈ 0.213 µM) | 2 (≈ 3.42 µM) |  |  |  | 
C[C@@H](NC(=O)Cn1cnnn1)[C@H]1C(=O)N2C(C(=O)O)=C(S[C@@H]3CN[C@H](C(=O)Nc4cccc(C(=O)N5CCNCC5)c4)C3)[C@H](C)[C@H]12 [Example 483, (4R,5S,6R)-6-((R)-1-(2-(1H-tetrazol-1-yl)acetamido)ethyl)-4-methyl-7-oxo-3-((3S,5S)-5-(3-(piperazine-1-carbonyl)phenylcarbamoyl)pyrrolidin-3-ylthio)-1-azabicyclo[3.2.0]] | 4 (≈ 6.13 µM) | 128 (≈ 196 µM) | 0.5 (≈ 0.766 µM) | 4 (≈ 6.13 µM) |  |  |  | 
C[C@@H](NC(=O)Cn1cnnn1)[C@H]1C(=O)N2C(C(=O)O)=C(S[C@@H]3CN[C@H](C(=O)Nc4ccc(CN)cc4)C3)[C@H](C)[C@H]12 [Example 484, (4R,5S,6R)-6-((R)-1-(2-(1H-tetrazol-1-yl)acetamido)ethyl)-3-((3S,5S)-5-(4-(aminomethyl)phenyl-carbamoyl)-pyrrolidin-3-ylthio)-4-methyl-7-oxo-1-azabicyclo[3.2.0]hept-2-ene-2-carboxylic acid] | 4 (≈ 7.02 µM) | 32 (≈ 56.2 µM) | 1 (≈ 1.76 µM) | 2 (≈ 3.51 µM) |  |  |  | 
C[C@@H](NC(=O)Cn1cnnn1)[C@H]1C(=O)N2C(C(=O)O)=C(S[C@@H]3CN[C@H](C(=O)N4CCN[C@@H](CN)C4)C3)[C@H](C)[C@H]12 [Example 485, (4R,5S,6R)-6-((R)-1-(2-(1H-tetrazol-1-yl)acetamido)ethyl)-3-((3S,5S)-5-((S)-3-(aminomethyl)piperazine-1-carbonyl)pyrrolidin-3-ylthio)-4-methyl-7-oxo-1-azabicyclo[3.2.0]hept-2-ene-2-carboxylic acid] | 4 (≈ 7.11 µM) | 4 (≈ 7.11 µM) | 0.5 (≈ 0.889 µM) | 8 (≈ 14.2 µM) |  |  |  | 
C[C@@H](NC(=O)C(F)F)[C@H]1C(=O)N2C(C(=O)O)=C(S[C@@H]3CN[C@H](C(=O)N4CCC5CNCCC54)C3)[C@H](C)[C@H]12 (stereo partly drawn) [Example 486, (4R,5S,6R)-6-((R)-1-(2,2-difluoroacetamido)ethyl)-4-methyl-3-((3S,5S)-5-(octahydro-1H-pyrrolo[3,2-c]pyridine-1-carbonyl)pyrrolidin-3-ylthio)-7-oxo-1-azabicyclo[3.2.0]hept-2-ene-2-carboxylic acid] | 8 (≈ 14.8 µM) | 64 (≈ 118 µM) | 0.5 (≈ 0.923 µM) | 2 (≈ 3.69 µM) |  |  |  | 
